Experimental data published in US8703697B2, “Method for treating early severe diffuse acute respiratory distress syndrome” (priority 2011, dated 2014).

Columns and labels:
[1] = system: severe diffuse ARDS; test: Case observation: ARDS patient sedated with clonidine under spontaneous ventilation-pressure support and high PEEP; type: in vivo, human
[2] = system: sedation; conditions: continuous infusion for sedation; cited from earlier work

## Clc1cccc(Cl)c1N=C1NCCN1 [clonidine]
[1]; human, in vivo
  P/F (PaO2/FiO2): 262
[1]; under clonidine 1 μg·kg-1·h-1, progressively lowered from Ramsay 5-6, patient communicated with family on D5
  Ramsay score: 2-3

## Cc1cccc([C@H](C)c2cnc[nH]2)c1C [dexmedetomidine]
[2]
  dosage at which ceiling effect is observed: 1.5 µg/kg/h

## CC(CCc1ccc(O)cc1)NCCc1ccc(O)c(O)c1 (centres unmarked) [dobutamine]
[1]; at all intervals, dobutamine D3 to D6, 2 then 1 μg·kg-1·min-1
  Superior vena cava O2 saturation: > 70%

## NC[C@H](O)c1ccc(O)c(O)c1 [noradrenaline]
[1]; noradrenaline 0.45 μg·kg-1·min-1 lowered to 0.01 μg·kg-1·min-1, forced diuresis
  mean arterial pressure: > 100 mm Hg
